{
  "source": "patent US6893830B1",
  "about": "“Method of screening oxysterol activation of LXRα” (The Board of Regents of the University of Texas System, priority 1996, dated 2005)",
  "key": {"LXRα": {"biological_target": "T1, LXRα (Homo sapiens, UniProt Q13133)", "T1 sequence (Q13133 1-447)": "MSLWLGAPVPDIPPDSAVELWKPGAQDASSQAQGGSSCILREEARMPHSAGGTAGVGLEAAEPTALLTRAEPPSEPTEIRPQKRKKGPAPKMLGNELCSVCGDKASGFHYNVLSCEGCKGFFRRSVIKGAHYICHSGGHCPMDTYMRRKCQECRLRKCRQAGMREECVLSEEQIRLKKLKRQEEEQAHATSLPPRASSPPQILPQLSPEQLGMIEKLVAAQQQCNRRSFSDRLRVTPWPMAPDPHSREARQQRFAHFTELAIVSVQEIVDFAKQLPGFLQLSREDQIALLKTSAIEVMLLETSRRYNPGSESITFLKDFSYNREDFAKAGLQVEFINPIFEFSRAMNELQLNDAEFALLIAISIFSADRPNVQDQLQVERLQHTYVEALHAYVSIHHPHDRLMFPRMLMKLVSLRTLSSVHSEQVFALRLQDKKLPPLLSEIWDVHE", "T1 sequence (P19793 1-462 partner)": "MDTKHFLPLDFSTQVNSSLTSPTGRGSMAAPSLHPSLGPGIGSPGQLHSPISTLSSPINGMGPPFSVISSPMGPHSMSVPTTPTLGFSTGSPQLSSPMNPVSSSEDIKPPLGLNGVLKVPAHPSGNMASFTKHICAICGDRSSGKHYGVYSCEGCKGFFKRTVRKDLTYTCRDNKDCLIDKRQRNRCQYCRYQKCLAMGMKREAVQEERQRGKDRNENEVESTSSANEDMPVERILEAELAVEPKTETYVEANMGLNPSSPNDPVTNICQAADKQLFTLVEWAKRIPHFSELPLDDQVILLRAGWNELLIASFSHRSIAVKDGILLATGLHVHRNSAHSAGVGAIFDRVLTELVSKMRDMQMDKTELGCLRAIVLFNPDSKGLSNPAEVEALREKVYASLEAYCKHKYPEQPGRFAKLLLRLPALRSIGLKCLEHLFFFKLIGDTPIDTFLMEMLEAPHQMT", "assay": "Activation of LXRα in Drosophila SL-2 cells (LXR responsive reporter)", "type": "cell-based", "design": "expressed in transfected cells; host or cells: Drosophila SL-2 cells", "conditions": "10 μM", "description": "TK-DR-4-LUC; human vitamin D receptor (VDR)^24, TK-DR^3-LUC; human peroxisome proliferator-activated receptor-α (PPARα)^25, TK-PPREx3-LUC; human farnesol activated receptor (FXR)^11, ΔMTV-EcREx5-LUC; human estrogen receptor (ER)^26, ΔMTV-ERE-LUC; human glucocorticoid receptor (GR)^27, MTV-LUC; Drosophila ecdysone receptor (usp/EcR)^15, ΔMTV-EcREx5-LUC. Cells were treated with ETOH or 6 μM 22(R)-hydroxycholesterol. […] FIG. 3(A)-3(D) Activation of LXRα by 22(R)-hydroxycholesterol in Drosophila (SL-2) cells. […] CV-1 cells were cotransfected with TK-LXREx3-LUC reporter plasmid and expression plasmids containing the indicated receptor combinations, and then treated with the indicated ligands. […] CV-1 cells cotransfected with the LXRα expression plasmid and TK-LXREx3-LUC reporter were treated with 9-cis RA, 22(R)-hydroxycholesterol, or both, at the indicated concentrations.\nIn FIG. 3B. Drosophila SL-2 cells were transfected and assayed as previously described^5 in 6-well plates with […] A5C-hLXRα or A5C-hLXRα, 0.5 mg ADH-LXREx2-LUC, 0.2 mg A5C-βGAL and […] PGEM4 carrier DNA per well.\nThe insect cell line, SL-2, which lacks mammalian nuclear receptors and is deficient in the metabolic pathways for cholesterol and bile acid synthesis^14, was used as a transfection host in these experiments. […]"}, "[1]": {"biological_target": "T2, TR-LXR chimera (TRβ N-terminus and DNA binding domain fused to ligand binding domain of LXRα) (Homo sapiens, UniProt Q13133)", "T2 construct": "expressed in transfected cells; host or cells: CV-1 monkey kidney cells", "T2 sequence (Q13133 164-447)": "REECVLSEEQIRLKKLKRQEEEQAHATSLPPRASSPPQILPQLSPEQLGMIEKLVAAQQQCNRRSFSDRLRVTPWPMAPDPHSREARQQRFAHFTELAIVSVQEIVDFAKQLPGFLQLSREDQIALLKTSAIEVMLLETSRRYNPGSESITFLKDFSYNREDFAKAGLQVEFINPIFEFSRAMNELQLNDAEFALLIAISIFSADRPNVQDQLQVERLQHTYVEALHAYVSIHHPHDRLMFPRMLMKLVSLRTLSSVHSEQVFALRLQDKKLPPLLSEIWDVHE", "assay": "Chimeric receptor transactivation in CV-1 cells, TR-LXR chimera", "type": "cell-based", "conditions": "TK-LXREx3-LUC", "method": "Cells were treated with ETOH or 6 μM 22(R)-hydroxycholesterol. […] CV-1 cells were cotransfected with TK-LXREx3-LUC reporter plasmid and expression plasmids containing the indicated receptor combinations, and then treated with the indicated ligands. […] CV-1 cells cotransfected with the LXRα expression plasmid and TK-LXREx3-LUC reporter were treated with 9-cis RA, 22(R)-hydroxycholesterol, or both, at the indicated concentrations."}},
  "data": [
    {"smiles": "CC(C)CC[C@@H](O)[C@@H](C)[C@H]1CC[C@H]2[C@@H]3CC=C4C[C@@H](O)CC[C@]4(C)[C@H]3CC[C@]12C", "note": "[22(R)-hydroxycholesterol]", "values": [
      {"measurement": "induction, LXRα alone transfected", "setting": "LXRα; LXRα alone", "value": 6, "unit": "fold"},
      {"measurement": "induction, RXRα cotransfected with LXRα", "setting": "LXRα; RXRα plus LXRα", "value": 26, "unit": "fold"},
      {"measurement": "responsiveness of TR-LXR chimera", "setting": "[1]", "value": "responded"}
    ]}
  ]
}
